Patent US20080026996A1, “Selective Vpac2 Receptor Reptide Agonists” (ELI LILLY AND COMPANY, priority 2004, published 2008)
Where a SMILES comes first, the peptide text is derived from it. Where no end group is shown, it is not given here. [ ]: non-standard residue; d: D form. The star is where a group is joined. hArg = N=C(N)NCCCC[C@H](N)C(=O)O; Cit = NC(=O)NCCC[C@H](N)C(=O)O; Hexanoyl = CCCCCC(=O)*; Aib = CC(C)(N)C(=O)O

Tests used:
human VPAC2 [1] = biological target: T1, human VPAC2 (Homo sapiens, UniProt P41587); test: Alpha screen cAMP in vitro potency, human VPAC2 receptor; type: cell-based; conditions: cAMP generation; single result from two analyses performed in a single run; read-out: Human VPAC2 Receptor: Alpha Screen EC50
T1 construct: expressed in transfected cells
T1 sequence (P41587 24-438): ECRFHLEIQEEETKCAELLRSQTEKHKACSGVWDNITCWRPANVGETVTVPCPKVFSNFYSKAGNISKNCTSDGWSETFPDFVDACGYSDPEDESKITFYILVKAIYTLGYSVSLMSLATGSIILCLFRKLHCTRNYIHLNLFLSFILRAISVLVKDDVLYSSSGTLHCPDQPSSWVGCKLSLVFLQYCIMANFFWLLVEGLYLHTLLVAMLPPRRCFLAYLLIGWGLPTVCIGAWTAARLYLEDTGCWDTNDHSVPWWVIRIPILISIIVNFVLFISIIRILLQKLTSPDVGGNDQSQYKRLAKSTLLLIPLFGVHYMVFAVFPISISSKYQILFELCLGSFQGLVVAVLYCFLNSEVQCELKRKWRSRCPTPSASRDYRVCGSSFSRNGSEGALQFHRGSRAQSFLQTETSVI
In short: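 Dissociated cells, 50,000 per point in stimulation buffer, were incubated with stimuli and AlphaScreen acceptor beads for 60 min.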

human VPAC2 [2] = biological target: T1, human VPAC2; test: Filter binding assay, membranes of stable VPAC2 cell line, 125I-labeled VIP tracer (Table 2); conditions: read-out: Human VPAC2 Receptor Binding
In short: (§1)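 Scintillation counting of filter-retained radioligand gave the read-out. Compounds competed with the labelled tracer (about 40000 cpm) for 2.5 μg membranes during 1 hour of shaking in HEPES pH 7.4 buffer containing 0.5% BSA.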

[3] = Rat serum stability studies (remaining active peptide by DiscoveRx cAMP on CHO-VPAC2 cells); type: in vitro ADME
Method: Store the aliquot with aprotinin at 4° C. Store the aliquot without aprotinin at 37° C. […] […] Incubate in room temperature for 30 minutes. Remove the supernatant. […] Incubate on the shaker (300 rpm) for 1 hour. Proceed as normal with the DiscoveRx kit. Include cAMP standards in column 12. Determine EC50 values from the cAMP assay data.

human VPAC1 = biological target: T2, human VPAC1 (Homo sapiens, UniProt P32241); test: Filter binding assay, membranes of cells transiently transfected with human VPAC1, 125I-labeled VIP tracer (Table 2); set-up: expressed in transfected cells; conditions: read-out: Human VPAC1 Receptor Binding
T2 sequence (P32241 31-457): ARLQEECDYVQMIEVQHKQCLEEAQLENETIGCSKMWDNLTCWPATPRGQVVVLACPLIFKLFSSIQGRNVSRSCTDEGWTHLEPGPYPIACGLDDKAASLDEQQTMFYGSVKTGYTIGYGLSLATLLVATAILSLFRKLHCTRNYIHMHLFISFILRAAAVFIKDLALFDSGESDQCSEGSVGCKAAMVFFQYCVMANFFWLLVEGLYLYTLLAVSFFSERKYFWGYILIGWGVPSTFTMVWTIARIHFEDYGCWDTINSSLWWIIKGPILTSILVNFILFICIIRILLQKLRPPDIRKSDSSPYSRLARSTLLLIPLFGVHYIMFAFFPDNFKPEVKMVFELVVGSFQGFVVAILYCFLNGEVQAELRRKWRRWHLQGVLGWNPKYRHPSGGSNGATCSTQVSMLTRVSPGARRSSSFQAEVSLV
In short: as §1

human PAC1 = biological target: T3, human PAC1 (Homo sapiens, UniProt P41586); test: Filter binding assay, membranes of cells transiently transfected with human PAC1, 125I-labeled PACAP-27 tracer (Table 2); set-up: expressed in transfected cells; conditions: read-out: Human PAC1 Receptor Binding
T3 sequence (P41586 21-468): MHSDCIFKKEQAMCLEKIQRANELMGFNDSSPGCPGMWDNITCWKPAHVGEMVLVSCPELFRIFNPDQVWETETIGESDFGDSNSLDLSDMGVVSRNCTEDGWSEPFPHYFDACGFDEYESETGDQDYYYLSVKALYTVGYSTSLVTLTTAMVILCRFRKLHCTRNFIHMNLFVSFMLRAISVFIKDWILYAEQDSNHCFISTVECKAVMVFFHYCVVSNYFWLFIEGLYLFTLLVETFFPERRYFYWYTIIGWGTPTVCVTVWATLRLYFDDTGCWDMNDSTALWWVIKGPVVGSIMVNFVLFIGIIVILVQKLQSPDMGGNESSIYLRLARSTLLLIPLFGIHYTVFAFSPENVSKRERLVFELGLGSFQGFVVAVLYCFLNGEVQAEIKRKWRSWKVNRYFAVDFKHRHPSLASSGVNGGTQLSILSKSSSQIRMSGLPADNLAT
In short: as §1

Row | Molecule | EC50 (human VPAC2 [1]) | IC50 (human VPAC2 [2]) | Rat Serum Stability (estimated purity in % after 18 hours) [3] | IC50 (human VPAC1) | IC50 (human PAC1)
1 | Hexanoyl-HSDAVFTDNYTRLR[Aib]QVAA[Aib]AYLQSIKNKRYGGPSSGAPPPS [Agonist P341] | 0.38 nM | 2.39 nM | 12.82% | > 3000 nM | 
2 | Hexanoyl-HSDAVFTDNYTRLR[Aib]QAAA[Aib]KYLQSIKNKRYGGPSSGAPPPS [Agonist P324] | 0.23 nM | 0.43 nM | 13.64% | > 3000 nM | 
3 | Hexanoyl-HSDAVFTDNYTRL[Aib]KQVAAAKYLQSIKNKRYGGPSSGAPPPS [Agonist P260] |  | 4.79 nM | 28.57% | 3320 nM | > 3 µM
4 | Hexanoyl-HSDAVFTDNYTRLA[Aib]QVAA[Aib]KYLQSIKNKRYGGPSSGAPPPS [Agonist P301] |  | 7.27 nM | 6.86% | > 3000 nM | > 25 µM
5 | Hexanoyl-HSDAVFTANYTRLRKQVAAKKYLQSIKNKRYGGPSSGAPPPS [Agonist P158] | 0.11 nM | 0.21 nM | 0.32% | 25.7 nM | 
6 | Hexanoyl-HSDAVFTDNYTRLRLQVAAKKYLQSIKNKRYGGPSSGAPPPS [Agonist P179] | 0.24 nM | 0.42 nM | 1.66% | 390 nM | 
7 | CCCCCC(=O)N[C@@H](Cc1c[nH]cn1)C(=O)N[C@@H](CO)C(=O)N[C@@H](CC(=O)O)C(=O)N[C@@H](C)C(=O)N[C@H](C(=O)N[C@@H](Cc1ccccc1)C(=O)N[C@H](C(=O)N[C@@H](CC(=O)O)C(=O)N[C@@H](CC(N)=O)C(=O)N[C@@H](Cc1ccc(O)cc1)C(=O)N[C@H](C(=O)N[C@@H](CCCNC(=N)N)C(=O)N[C@@H](CC(C)C)C(=O)N[C@@H](CCCNC(=N)N)C(=O)N[C@@H](CCCCN)C(=O)N[C@@H](CCC(N)=O)C(=O)N[C@H](C(=O)N[C@@H](C)C(=O)N[C@@H](C)C(=O)N[C@@H](CCCCN)C(=O)N[C@@H](CCCNC(=N)N)C(=O)N[C@@H](Cc1ccc(O)cc1)C(=O)N[C@@H](CC(C)C)C(=O)N[C@@H](CCC(N)=O)C(=O)N[C@@H](CO)C(=O)N[C@H](C(=O)N[C@@H](CCCNC(=N)N)C(=O)N[C@@H](CC(N)=O)C(=O)NCC(=O)NCC(=O)N1CCC[C@H]1C(=O)N[C@@H](CO)C(=O)N[C@@H](CO)C(=O)NCC(=O)N[C@@H](C)C(=O)N1CCC[C@H]1C(=O)N1CCC[C@H]1C(=O)N1CCC[C@H]1C(=O)N[C@@H](CO)C(=O)O)[C@@H](C)CC)C(C)C)[C@@H](C)O)[C@@H](C)O)C(C)C [Agonist P213] (Hexanoyl-HSDAVFTDNYTRLRKQVAAKRYLQSIRNGGPSSGAPPPS-OH; C-terminus assumed) | 0.24 nM | 0.27 nM | 0.04% | 32.2 nM | 
8 | Hexanoyl-HSDAVFTDNYTRL[hArg][Aib]QVAA[Aib]KYLQSIKNKRYGGPSSGAPPPS [Agonist P316] | 0.3 nM | 0.38 nM | 15.06% | > 3000 nM | 
9 | Hexanoyl-HSDAVFTDNYTRLRKQVAAKKYLQSIKNKRFGGPSSGAPPPS [Agonist P203] | 0.14 nM | 0.18 nM | <0.09% |  | 
10 | Hexanoyl-HSD[dA]VFTDNYTRLRKQVAAKKYLQSIKNKRYGGPSSGAPPPS [Agonist P207] | 0.86 nM | 0.81 nM | <0.29% | 282 nM | 
11 | Hexanoyl-HSDAVFTDNYTRLLAKLAAQKYLQSIKNKRYGGPSSGAPPPS [Agonist P197] | 0.09 nM | 0.31 nM | 5.68% | 447 nM | 
12 | Hexanoyl-HSDAVFTDNYTRLRKQVAAKKALQSIKNKRYGGPSSGAPPPS [Agonist P229] | 2.6 nM |  | <5.00% |  | 
13 | Hexanoyl-HSDAVFTENYTRLRKQVAAKKYLQSIKNKRYGGPSSGAPPPS [Agonist P159] | 0.17 nM | 0.17 nM | 0.15% | 131 nM | 
14 | CCCCCC(=O)N[C@@H](Cc1c[nH]cn1)C(=O)N[C@@H](CO)C(=O)N[C@@H](CC(=O)O)C(=O)N[C@@H](C)C(=O)N[C@H](C(=O)N[C@@H](Cc1ccccc1)C(=O)N[C@H](C(=O)N[C@@H](CC(=O)O)C(=O)N[C@@H](CC(N)=O)C(=O)N[C@@H](Cc1ccc(O)cc1)C(=O)N[C@H](C(=O)N[C@@H](CCCNC(=N)N)C(=O)N[C@@H](CC(C)C)C(=O)N[C@@H](CCCNC(=N)N)C(=O)N[C@@H](CCCCN)C(=O)N[C@@H](CCC(N)=O)C(=O)N[C@H](C(=O)N[C@@H](C)C(=O)N[C@@H](C)C(=O)N[C@@H](CCCNC(=N)N)C(=O)N[C@@H](CCCNC(=N)N)C(=O)N[C@@H](Cc1ccc(O)cc1)C(=O)N[C@@H](CC(C)C)C(=O)N[C@@H](CCC(N)=O)C(=O)N[C@@H](CO)C(=O)N[C@H](C(=O)N[C@@H](CCCNC(=N)N)C(=O)N[C@@H](CC(N)=O)C(=O)NCC(=O)NCC(=O)N1CCC[C@H]1C(=O)N[C@@H](CO)C(=O)N[C@@H](CO)C(=O)NCC(=O)N[C@@H](C)C(=O)N1CCC[C@H]1C(=O)N1CCC[C@H]1C(=O)N1CCC[C@H]1C(=O)N[C@@H](CO)C(=O)O)[C@@H](C)CC)C(C)C)[C@@H](C)O)[C@@H](C)O)C(C)C [Agonist P214] (Hexanoyl-HSDAVFTDNYTRLRKQVAARRYLQSIRNGGPSSGAPPPS-OH; C-terminus assumed) | 0.16 nM | 0.19 nM | 0.07% | 14.5 nM | 
15 | Hexanoyl-HSDAVFTDNYTRL[Cit][Aib]QVAA[Aib]KYLQSIKNKRYGGPSSGAPPPS [Agonist P320] | 0.49 nM | 1.2 nM | 28.59% | > 3000 nM | 
16 | Hexanoyl-HSDAVFTDNYTRLRKQVAAKKYTQSIKNKRYGGPSSGAPPPS [Agonist P232] | 1.94 nM |  | <5.00% |  | 
17 | Hexanoyl-HSDA[Aib]FTDNYTRLRKQVAAKKYLQSIKNKRYGGPSSGAPPPS [Agonist P212] | 0.12 nM | 0.19 nM | 0.21% | 198 nM | 
18 | Hexanoyl-HSDAVFTDNYTRLRKQVAAKLYLQSIKNKRYGGPSSGAPPPS [Agonist P185] | 0.18 nM | 0.41 nM | 0.27% | 358 nM | 
